In paper PMC12090182, “Repurposing of the RIPK1-Selective Benzo[1,4]oxazepin-4-one Scaffold for the Development of a Type III LIMK1/2 Inhibitor” (ACS Chemical Biology, 2025):

What was measured:
Test in all cases: scanMAX KINOMEscan (Eurofins)
Format in all cases: binding
PLK4 = PLK4 (Homo sapiens, UniProt O00444); conditions: 1000 nM, read-out: Percent Control
From the text: (§1) Supplement cb5c00097_si_002.xlsx, sheet "Table S6 (Eurofins Selectivity)" | column: Percent Control

WNK4 = WNK4 (Homo sapiens, UniProt Q96J92); conditions: compound concentration 100 nM; Entrez WNK4; read-out: Percent Control
From the text: as §1

IRAK4 = IRAK4 (Homo sapiens, UniProt Q9NWZ3); conditions: compound concentration 100 nM; Entrez IRAK4; read-out: Percent Control
From the text: as §1

MST3 = MST3 (Homo sapiens, UniProt Q9Y6E0); conditions: 1000 nM, read-out: Percent Control
From the text: as §1

ACVR1B = ACVR1B (Homo sapiens, UniProt P36896); conditions: 1000 nM, read-out: Percent Control
From the text: as §1

MAST1 = MAST1 (Homo sapiens, UniProt Q9Y2H9); conditions: 1000 nM, read-out: Percent Control
From the text: as §1

PIK3CA = PIK3CA (Homo sapiens, UniProt P42336); conditions: 1000 nM, read-out: Percent Control
From the text: as §1

PCTK1 = PCTK1 (Homo sapiens, UniProt Q00536); conditions: compound concentration 100 nM; Entrez CDK16; read-out: Percent Control
From the text: as §1

IKK-epsilon = IKK-epsilon (Homo sapiens, UniProt Q14164); conditions: 1000 nM, read-out: Percent Control
From the text: as §1

[1] = target: RPS6KA5(Kin.Dom.2-C-terminal) (Homo sapiens, UniProt O75582); conditions: compound concentration 100 nM; Entrez RPS6KA5; read-out: Percent Control
From the text: as §1

MRCKB = MRCKB (Homo sapiens, UniProt Q9Y5S2); conditions: compound concentration 100 nM; Entrez CDC42BPB; read-out: Percent Control
From the text: as §1

TSSK3 = TSSK3 (Homo sapiens, UniProt Q96PN8); conditions: compound concentration 100 nM; Entrez TSSK3; read-out: Percent Control
From the text: as §1

LTK = LTK (Homo sapiens, UniProt P29376); conditions: 1000 nM, read-out: Percent Control
From the text: as §1

LYN = LYN (Homo sapiens, UniProt P07948); conditions: 1000 nM, read-out: Percent Control
From the text: as §1

MAP3K3 = MAP3K3 (Homo sapiens, UniProt Q99759); conditions: 1000 nM, read-out: Percent Control
From the text: as §1

CDC2L2 = CDC2L2 (Homo sapiens, UniProt Q9UQ88); conditions: 1000 nM, read-out: Percent Control
From the text: as §1

TAK1 = TAK1 (Homo sapiens, UniProt O43318); conditions: 1000 nM, read-out: Percent Control
From the text: as §1

FAK = FAK (Homo sapiens, UniProt Q05397); conditions: 1000 nM, read-out: Percent Control
From the text: as §1

MST1 = MST1 (Homo sapiens, UniProt Q13043); conditions: 1000 nM, read-out: Percent Control
From the text: as §1

CSNK1G2 = CSNK1G2 (Homo sapiens, UniProt P78368); conditions: read-out: Percent Control
CSNK1G2, sequence (P78368 whole entry): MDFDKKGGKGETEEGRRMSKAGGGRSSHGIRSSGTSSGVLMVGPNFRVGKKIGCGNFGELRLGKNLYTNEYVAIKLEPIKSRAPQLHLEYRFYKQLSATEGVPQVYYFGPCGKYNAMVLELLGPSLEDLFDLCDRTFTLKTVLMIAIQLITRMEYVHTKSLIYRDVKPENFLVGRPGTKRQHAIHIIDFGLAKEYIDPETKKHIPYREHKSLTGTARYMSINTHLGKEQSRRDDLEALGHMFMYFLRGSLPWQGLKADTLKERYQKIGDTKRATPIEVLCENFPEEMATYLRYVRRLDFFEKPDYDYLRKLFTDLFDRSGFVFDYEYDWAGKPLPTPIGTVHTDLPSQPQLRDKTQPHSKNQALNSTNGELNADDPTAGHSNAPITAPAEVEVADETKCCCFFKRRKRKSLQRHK
From the text: as §1

CDC2L5 = CDC2L5 (Homo sapiens, UniProt Q14004); conditions: read-out: Percent Control
CDC2L5, sequence (Q14004 whole entry): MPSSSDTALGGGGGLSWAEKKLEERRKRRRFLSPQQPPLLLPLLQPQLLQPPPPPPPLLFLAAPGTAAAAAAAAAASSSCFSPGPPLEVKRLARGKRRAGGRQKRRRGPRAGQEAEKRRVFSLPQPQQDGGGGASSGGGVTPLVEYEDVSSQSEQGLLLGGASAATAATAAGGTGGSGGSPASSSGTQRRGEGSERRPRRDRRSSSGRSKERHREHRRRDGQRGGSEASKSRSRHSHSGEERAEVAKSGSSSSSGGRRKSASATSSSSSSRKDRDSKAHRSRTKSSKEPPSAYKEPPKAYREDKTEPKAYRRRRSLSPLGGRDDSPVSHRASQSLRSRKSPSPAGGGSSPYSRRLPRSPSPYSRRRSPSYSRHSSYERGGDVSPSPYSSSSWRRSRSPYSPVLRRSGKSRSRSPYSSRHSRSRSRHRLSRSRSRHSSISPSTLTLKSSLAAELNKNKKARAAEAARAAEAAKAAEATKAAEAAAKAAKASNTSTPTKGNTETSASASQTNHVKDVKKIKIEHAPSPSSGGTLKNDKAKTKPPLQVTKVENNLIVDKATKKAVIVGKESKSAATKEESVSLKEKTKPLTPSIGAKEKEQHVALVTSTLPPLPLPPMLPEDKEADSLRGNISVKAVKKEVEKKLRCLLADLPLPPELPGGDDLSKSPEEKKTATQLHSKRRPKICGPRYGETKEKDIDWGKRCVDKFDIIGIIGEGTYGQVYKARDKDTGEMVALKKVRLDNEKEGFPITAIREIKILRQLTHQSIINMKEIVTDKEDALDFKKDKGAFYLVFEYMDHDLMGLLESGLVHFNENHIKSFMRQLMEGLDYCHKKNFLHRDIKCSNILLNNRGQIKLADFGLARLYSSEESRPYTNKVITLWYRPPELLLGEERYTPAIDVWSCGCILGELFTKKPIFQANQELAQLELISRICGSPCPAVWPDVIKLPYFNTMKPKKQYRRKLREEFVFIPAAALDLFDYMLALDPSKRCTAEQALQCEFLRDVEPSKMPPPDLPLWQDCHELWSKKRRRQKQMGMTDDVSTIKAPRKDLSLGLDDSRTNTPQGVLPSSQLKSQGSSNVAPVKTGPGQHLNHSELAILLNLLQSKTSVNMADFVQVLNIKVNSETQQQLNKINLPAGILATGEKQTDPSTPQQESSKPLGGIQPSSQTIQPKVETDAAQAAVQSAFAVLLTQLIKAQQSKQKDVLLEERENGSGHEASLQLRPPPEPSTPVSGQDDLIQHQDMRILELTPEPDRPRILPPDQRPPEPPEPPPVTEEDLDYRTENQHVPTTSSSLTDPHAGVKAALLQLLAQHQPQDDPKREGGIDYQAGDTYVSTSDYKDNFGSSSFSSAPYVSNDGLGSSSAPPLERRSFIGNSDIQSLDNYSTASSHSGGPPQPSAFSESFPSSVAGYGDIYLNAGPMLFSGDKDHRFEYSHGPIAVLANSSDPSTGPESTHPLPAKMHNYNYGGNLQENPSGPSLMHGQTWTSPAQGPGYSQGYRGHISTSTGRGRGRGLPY
From the text: as §1

TNK2 = TNK2 (Homo sapiens, UniProt Q07912); conditions: read-out: Percent Control
TNK2, sequence (Q07912 whole entry): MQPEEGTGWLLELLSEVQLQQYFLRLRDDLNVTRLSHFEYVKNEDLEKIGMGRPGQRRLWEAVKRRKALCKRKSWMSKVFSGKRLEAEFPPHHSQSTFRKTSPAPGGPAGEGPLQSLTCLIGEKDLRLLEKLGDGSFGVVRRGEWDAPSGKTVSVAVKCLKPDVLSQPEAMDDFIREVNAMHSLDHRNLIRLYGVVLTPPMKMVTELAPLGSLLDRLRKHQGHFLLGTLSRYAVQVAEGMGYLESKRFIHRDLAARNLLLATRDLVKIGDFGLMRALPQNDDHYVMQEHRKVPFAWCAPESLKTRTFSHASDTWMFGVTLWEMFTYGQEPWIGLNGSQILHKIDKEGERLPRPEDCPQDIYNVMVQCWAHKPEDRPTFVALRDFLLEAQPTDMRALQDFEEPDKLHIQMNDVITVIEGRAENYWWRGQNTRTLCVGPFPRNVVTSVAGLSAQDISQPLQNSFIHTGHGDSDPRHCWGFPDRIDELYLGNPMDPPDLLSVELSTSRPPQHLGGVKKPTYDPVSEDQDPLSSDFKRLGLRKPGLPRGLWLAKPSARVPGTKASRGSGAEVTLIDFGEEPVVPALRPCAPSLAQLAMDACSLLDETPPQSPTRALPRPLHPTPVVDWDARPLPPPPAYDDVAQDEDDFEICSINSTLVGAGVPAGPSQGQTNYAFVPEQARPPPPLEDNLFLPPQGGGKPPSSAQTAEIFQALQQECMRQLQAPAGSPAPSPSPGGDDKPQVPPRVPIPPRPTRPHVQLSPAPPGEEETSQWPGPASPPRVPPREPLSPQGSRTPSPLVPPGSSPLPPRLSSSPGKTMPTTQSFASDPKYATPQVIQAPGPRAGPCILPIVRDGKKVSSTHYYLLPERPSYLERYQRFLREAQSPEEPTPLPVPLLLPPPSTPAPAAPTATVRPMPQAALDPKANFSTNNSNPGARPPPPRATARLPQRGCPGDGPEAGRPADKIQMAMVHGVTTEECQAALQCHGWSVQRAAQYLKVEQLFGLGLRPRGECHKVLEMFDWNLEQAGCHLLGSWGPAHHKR
From the text: as §1

ERK5 = ERK5 (Homo sapiens, UniProt Q13164); conditions: 1000 nM, read-out: Percent Control
From the text: as §1

PDGFRB = PDGFRB (Homo sapiens, UniProt P09619); conditions: 1000 nM, read-out: Percent Control
From the text: as §1

MST4 = MST4 (Homo sapiens, UniProt Q9P289); conditions: 1000 nM, read-out: Percent Control
From the text: as §1

FRK = FRK (Homo sapiens, UniProt P42685); conditions: 1000 nM, read-out: Percent Control
From the text: as §1

PFCDPK1(P.falciparum) = PFCDPK1(P.falciparum) (Plasmodium falciparum, UniProt P62344); conditions: compound concentration 100 nM; Entrez CDPK1; read-out: Percent Control
From the text: as §1

YANK2 = YANK2 (Homo sapiens, UniProt Q9NY57); conditions: compound concentration 100 nM; Entrez STK32B; read-out: Percent Control
From the text: as §1

DMPK2 = DMPK2 (Homo sapiens, UniProt Q6DT37); conditions: read-out: Percent Control
DMPK2, sequence (Q6DT37 whole entry): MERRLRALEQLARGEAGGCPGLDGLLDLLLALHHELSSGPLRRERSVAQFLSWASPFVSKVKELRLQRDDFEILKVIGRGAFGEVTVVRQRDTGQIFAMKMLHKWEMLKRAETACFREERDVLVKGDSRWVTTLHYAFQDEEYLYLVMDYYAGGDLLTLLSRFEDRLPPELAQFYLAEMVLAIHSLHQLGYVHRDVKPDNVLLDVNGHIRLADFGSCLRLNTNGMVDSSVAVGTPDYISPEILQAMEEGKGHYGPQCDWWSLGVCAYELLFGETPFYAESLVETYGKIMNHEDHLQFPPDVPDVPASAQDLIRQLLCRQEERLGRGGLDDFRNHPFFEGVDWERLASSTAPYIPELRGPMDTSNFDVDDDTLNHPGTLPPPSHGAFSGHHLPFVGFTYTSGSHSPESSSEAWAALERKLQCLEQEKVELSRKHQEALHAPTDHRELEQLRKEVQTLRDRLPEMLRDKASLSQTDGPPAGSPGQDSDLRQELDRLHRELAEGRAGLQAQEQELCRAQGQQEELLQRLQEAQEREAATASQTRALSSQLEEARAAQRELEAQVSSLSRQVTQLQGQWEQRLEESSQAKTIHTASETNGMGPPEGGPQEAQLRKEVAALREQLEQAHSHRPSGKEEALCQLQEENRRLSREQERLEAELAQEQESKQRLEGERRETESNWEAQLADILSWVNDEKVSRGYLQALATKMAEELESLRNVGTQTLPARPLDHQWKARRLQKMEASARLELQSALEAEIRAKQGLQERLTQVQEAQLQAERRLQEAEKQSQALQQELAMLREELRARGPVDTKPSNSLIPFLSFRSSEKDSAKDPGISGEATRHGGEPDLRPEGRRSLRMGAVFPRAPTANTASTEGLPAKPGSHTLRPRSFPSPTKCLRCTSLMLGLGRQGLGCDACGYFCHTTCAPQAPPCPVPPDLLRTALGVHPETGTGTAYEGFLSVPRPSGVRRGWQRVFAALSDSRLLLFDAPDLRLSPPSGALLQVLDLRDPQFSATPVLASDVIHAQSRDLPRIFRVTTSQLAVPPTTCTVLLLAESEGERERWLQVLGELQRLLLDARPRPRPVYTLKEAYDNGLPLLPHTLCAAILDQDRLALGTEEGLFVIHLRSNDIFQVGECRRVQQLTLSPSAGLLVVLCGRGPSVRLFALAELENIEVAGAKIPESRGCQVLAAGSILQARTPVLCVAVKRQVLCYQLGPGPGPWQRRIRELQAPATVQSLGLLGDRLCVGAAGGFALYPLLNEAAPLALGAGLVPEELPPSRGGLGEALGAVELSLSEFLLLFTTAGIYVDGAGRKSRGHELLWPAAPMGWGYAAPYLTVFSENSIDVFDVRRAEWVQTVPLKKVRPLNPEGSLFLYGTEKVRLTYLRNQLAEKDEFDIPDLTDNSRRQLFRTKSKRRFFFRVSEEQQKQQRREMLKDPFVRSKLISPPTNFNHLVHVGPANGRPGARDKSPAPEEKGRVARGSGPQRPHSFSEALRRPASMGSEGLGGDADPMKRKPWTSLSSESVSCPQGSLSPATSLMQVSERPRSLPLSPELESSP
From the text: as §1

MARK4 = MARK4 (Homo sapiens, UniProt Q96L34); conditions: compound concentration 100 nM; Entrez MARK4; read-out: Percent Control
From the text: as §1

KIT = KIT (Homo sapiens, UniProt P10721); conditions: 1000 nM, read-out: Percent Control
From the text: as §1

NEK10 = NEK10 (Homo sapiens, UniProt Q6ZWH5); conditions: 1000 nM, read-out: Percent Control
From the text: as §1

MAK = MAK (Homo sapiens, UniProt P20794); conditions: compound concentration 100 nM; Entrez MAK; read-out: Percent Control
From the text: as §1

CHEK2 = CHEK2 (Homo sapiens, UniProt O96017); conditions: read-out: Percent Control
From the text: as §1

AURKB = AURKB (Homo sapiens, UniProt Q96GD4); conditions: read-out: Percent Control
AURKB, sequence (Q96GD4 whole entry): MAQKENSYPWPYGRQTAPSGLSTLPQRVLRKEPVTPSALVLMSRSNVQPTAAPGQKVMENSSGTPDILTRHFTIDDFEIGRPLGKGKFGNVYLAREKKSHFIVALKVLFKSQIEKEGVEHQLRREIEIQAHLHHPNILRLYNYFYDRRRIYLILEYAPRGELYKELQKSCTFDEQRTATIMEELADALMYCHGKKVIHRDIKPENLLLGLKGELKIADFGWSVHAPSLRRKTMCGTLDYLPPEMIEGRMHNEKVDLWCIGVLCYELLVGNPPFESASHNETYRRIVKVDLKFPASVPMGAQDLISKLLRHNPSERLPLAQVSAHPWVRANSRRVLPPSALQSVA
From the text: as §1

YANK3 = YANK3 (Homo sapiens, UniProt Q86UX6); conditions: 1000 nM, read-out: Percent Control
From the text: as §1

In the case of `CN1C(=O)[C@@H](N2CCc3c(nn(Cc4ccccc4)c3C(N)=O)C2=O)COc2cc(Cl)ccc21` [Compound 10, (S)-2-benzyl-6-(8-chloro-5-methyl-4-oxo-2,3,4,5-tetrahydrobenzo[b][1,4]oxazepin-3-yl)-7-oxo-4,5,6,7-tetrahydro-2H-pyrazolo[3,4-c]pyridine-3-carboxamide], the remaining binding at 1 µM (PLK4) is reported as 82%, the remaining binding at 0.1 µM (WNK4) is reported as 100% and the remaining binding at 0.1 µM (IRAK4) is reported as 100%. For the same compound, the remaining binding at 1 µM (MST3) was 96%, the remaining binding at 1 µM (ACVR1B) was 86% and the remaining binding at 1 µM (MAST1) was 75%. For the same compound, the remaining binding at 1 µM (PIK3CA) was 92%, the remaining binding at 0.1 µM (PCTK1) was 100% and the remaining binding at 1 µM (IKK-epsilon) was 75%. The remaining binding at 0.1 µM [1] was 95%, the remaining binding at 0.1 µM (MRCKB) was 95% and the remaining binding at 0.1 µM (TSSK3) was 100%. For the same compound, the remaining binding at 1 µM (LTK) was 86%, the remaining binding at 1 µM (LYN) was 77% and the remaining binding at 1 µM (MAP3K3) was 94%. The remaining binding at 1 µM (CDC2L2) was 86%, the remaining binding at 1 µM (TAK1) was 82% and the remaining binding at 1 µM (FAK) was 90%. The remaining binding at 1 µM (MST1) was 92%, the remaining binding at 1 µM (CSNK1G2; 1000 nM) was 100% and the remaining binding at 0.1 µM (CSNK1G2; compound concentration 100 nM, Entrez CSNK1G2) was 91%. The remaining binding at 1 µM (CDC2L5; 1000 nM) was 100%, the remaining binding at 0.1 µM (CDC2L5; compound concentration 100 nM, Entrez CDK13) was 100% and the remaining binding at 1 µM (TNK2; 1000 nM) was 98%. The remaining binding at 0.1 µM (TNK2; compound concentration 100 nM, Entrez TNK2) was 89%, the remaining binding at 1 µM (ERK5) was 86% and the remaining binding at 1 µM (PDGFRB) was 87%. For the same compound, the remaining binding at 1 µM (MST4) was 92%, the remaining binding at 1 µM (FRK) was 81% and the remaining binding at 0.1 µM (PFCDPK1(P.falciparum)) was 97%. For the same compound, the remaining binding at 0.1 µM (YANK2) was 99%, the remaining binding at 1 µM (DMPK2; 1000 nM) was 100% and the remaining binding at 0.1 µM (DMPK2; compound concentration 100 nM, Entrez CDC42BPG) was 92%. The remaining binding at 0.1 µM (MARK4) was 76%, the remaining binding at 1 µM (KIT) was 89% and the remaining binding at 1 µM (NEK10) was 94%. It also gave a remaining binding at 0.1 µM (MAK) of 94%, a remaining binding at 1 µM (CHEK2; 1000 nM) of 100% and a remaining binding at 0.1 µM (CHEK2; compound concentration 100 nM, Entrez CHEK2) of 100%. For the same compound, the remaining binding at 1 µM (AURKB; 1000 nM) was 100%, the remaining binding at 0.1 µM (AURKB; compound concentration 100 nM, Entrez AURKB) was 100% and the remaining binding at 1 µM (YANK3) was 92%.
